In patent publication US12435060B2, “Acylamino bridged heterocyclic compound, and composition and application thereof” (BEIJING SCITECH-MQ PHARMACEUTICALS LIMITED, priority 2019, dated 2025):

What follows are compounds tested on HT29 cells (assay: Inhibition of cell necrosis (CCK8 method), induced programmed necrosis of HT29 cells). Conditions: Homo sapiens, HT-29; rescue from necrosis induced by TNF-α 20 ng/mL, AT-406 1 μM, Z-VAD-FMK 20 μM; 16-20 hours; CCK-8, OD 450 nm.
Assay type: cell-based
Summary of the method: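 HT29 cells in McCOY's 5A with 10% FBS were pre-treated for 30 min with compound (9 fourfold steps, 25000 to 0.38 nM final, 0.25% DMSO). Necrosis was then induced with TNF-α 20 ng/mL, AT-406 1 μM and Z-VAD-FMK 20 μM for 16-20 h. Viability was read by CCK-8 OD450, normalized between uninduced and induced wells, and IC50 was curve-fitted.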

Compound	IC50 [nM]
Cc1ccc(OCCCC(C)(C)O)cc1-c1ccnc(NC(=O)c2nnc(CC3CCCC3)[nH]2)c1 [Example 173, 5-(cyclopentylmethyl)-N-(4-(5-((4-hydroxy-4-methylpentyl)oxy)-2-methylphenyl)pyridin-2-yl)-4H-1,2,4-triazole-3-carboxamide]	≤ 100
O=C(Nc1cc(-c2cc(OCC3CCOCC3)ccc2Cl)c(Cl)cn1)c1nnc(CC2CCCCC2)[nH]1 [Example 425, N-(5-chloro-4-(2-chloro-5-((tetrahydro-2H-pyran-4-yl)methoxy)phenyl)pyridin-2-yl)-5-(cyclohexylmethyl)-4H-1,2,4-triazole-3-carboxamide]	100 to 1000
Cc1ccc(OCCCC(C)(C)O)cc1-c1ccnc(NC(=O)c2nnc(Cc3cccc(C(F)(F)F)c3F)[nH]2)c1 [Example 210, 5-(2-fluoro-3-trifluoromethylbenzyl)-N-(4-(5-((4-hydroxy-4-methylpentyl)oxy)-2-methylphenyl)pyridin-2-yl)-4H-1,2,4-triazole-3-carboxamide]	100 to 1000
Cc1ccc(OCC2COC2)cc1-c1ccnc(NC(=O)c2nnc(Cc3ccccc3)[nH]2)c1 [Example 66, 5-benzyl-N-(4-(2-methyl-5-(oxetan-3-ylmethoxy)phenyl)pyridin-2-yl)-4H-1,2,4-triazole-3-carboxamide]	≤ 100
Cc1ccc(OCCO)cc1-c1ccnc(NC(=O)c2nnc(Cc3ccccc3)[nH]2)c1 [Example 125, 5-benzyl-N-(4-(5-(2-hydroxyethoxy)-2-methylphenyl)pyridin-2-yl)-4H-1,2,4-triazole-3-carboxamide]	100 to 1000
COc1ccccc1-c1ccnc(NC(=O)c2nnc(Cc3ccccc3)[nH]2)c1 [Example 3, 5-benzyl-N-(4-(2-methoxyphenyl)pyridin-2-yl)-4H-1,2,4-triazole-3-carboxamide]	1000 to 10000
O=C(Nc1cc(-c2cc(OCC3CCOCC3)ccc2Cl)ncn1)c1nnc(Cc2ccccc2F)[nH]1 [Example 467, 5-(2-fluorobenzyl)-N-(6-(2-chloro-5-((tetrahydro-2H-pyran-4-yl)methoxy)phenyl)pyrimidin-4-yl)-4H-1,2,4-triazole-3-carboxamide]	≤ 100
CC(C)(O)CCCOc1ccc(C(F)(F)F)c(-c2ccnc(NC(=O)c3nnc(Cc4ccccc4)[nH]3)c2)c1 [Example 194, 5-benzyl-N-(4-(5-((4-hydroxy-4-methylpentyl)oxy)-2-(trifluoromethyl)phenyl)pyridin-2-yl)-4H-1,2,4-triazole-3-carboxamide]	≤ 100
CCn1nc(C)cc1-c1ccnc(NC(=O)c2nnc(Cc3ccccc3)[nH]2)c1 [Example 109, 5-benzyl-N-(4-(1-ethyl-3-methyl-1H-pyrazol-5-yl)pyridin-2-yl)-4H-1,2,4-triazole-3-carboxamide]	1000 to 10000
Cc1ccc(OCC2CCOCC2)cc1-c1cc(NC(=O)c2nnc(CC3CCCCC3)[nH]2)ncn1 [Example 444, 5-(cyclohexylmethyl)-N-(6-(2-methyl-5-((tetrahydro-2H-pyran-4-yl)methoxy)phenyl)pyrimidin-4-yl)-4H-1,2,4-triazole-3-carboxamide]	≤ 100
O=C(Nc1cc(-c2ccccc2OCCO)ccn1)c1nnc(Cc2ccccc2)[nH]1 [Example 124, 5-benzyl-N-(4-(2-(2-hydroxyethoxy)phenyl)pyridin-2-yl)-4H-1,2,4-triazole-3-carboxamide]	1000 to 10000
CC(C)(O)CCCOc1ccc(Cl)c(-c2ccnc(NC(=O)c3nnc(C(O)c4ccccc4F)[nH]3)c2)c1 (centres unmarked) [Example 476, N-(4-(2-chloro-5-((4-hydroxy-4-methylpentyl)oxy)phenyl)pyridin-2-yl)-5-((2-fluorophenyl)(hydroxyl)methyl)-4H-1,2,4-triazole-3-carboxamide]	100 to 1000
Cc1ccc(OCCCC(C)(C)O)cc1-c1ccnc(NC(=O)c2nnc(CC3CC3)[nH]2)c1 [Example 171, 5-(cyclopropylmethyl)-N-(4-(5-((4-hydroxy-4-methylpentyl)oxy)-2-methylphenyl)pyridin-2-yl)-4H-1,2,4-triazole-3-carboxamide]	100 to 1000
CCC(O)(CC)CCCOc1ccc(F)c(-c2cc(NC(=O)c3nnc(Cc4ccccc4F)[nH]3)ncc2Cl)c1 [Example 323, N-(5-chloro-4-(5-((4-ethyl-4-hydroxyhexyl)oxy)-2-fluorophenyl)pyridin-2-yl)-5-(2-fluorobenzyl)-4H-1,2,4-triazole-3-carboxamide]	100 to 1000
COCCOc1ccc(C)c(-c2ccnc(NC(=O)c3nnc(Cc4ccccc4)[nH]3)c2)c1 [Example 128, 5-benzyl-N-(4-(5-(2-methoxyethoxy)-2-methylphenyl)pyridin-2-yl)-4H-1,2,4-triazole-3-carboxamide]	≤ 100
Cc1ccc(OCCN2CCCC2=O)cc1-c1ccnc(NC(=O)c2nnc(Cc3ccccc3)[nH]2)c1 [Example 71, 5-benzyl-N-(4-(2-methyl-5-(2-(2-oxopyrrolidin-1-yl)ethoxy)phenyl)pyridin-2-yl)-4H-1,2,4-triazole-3-carboxamide]	≤ 100

Compound	IC50 [nM]
CC(C)(O)CCCOc1ccc(Cl)c(-c2ccnc(NC(=O)c3nnc([C@@H](O)c4ccccc4)[nH]3)c2)c1 [Example 478, (S)-N-(4-(2-chloro-5-((4-hydroxy-4-methylpentyl)oxy)phenyl)pyridin-2-yl)-5-(hydroxyl(phenyl)methyl)-4H-1,2,4-triazole-3-carboxamide]	100 to 1000
COC(=O)C=Cc1ccc(C)c(-c2ccnc(NC(=O)c3nnc(Cc4ccccc4)[nH]3)c2)c1 [Example 480, Methyl 3-(3-(2-(5-benzyl-4H-1,2,4-triazol-3-carboxamido)pyridin-4-yl)-4-methylphenyl)acrylate]	≤ 100
COCCCOc1ccc(C)c(-c2ccnc(NC(=O)c3nnc(CC4CCCCC4)[nH]3)c2)c1 [Example 145, 5-(cyclohexylmethyl)-N-(4-(5-(3-methoxypropoxy)-2-methylphenyl)pyridin-2-yl)-4H-1,2,4-triazole-3-carboxamide]	≤ 100
Cc1ccc(OCCCC(C)(C)O)cc1-c1ccnc(NC(=O)c2nnc(Cc3ccc(F)cc3)[nH]2)c1 [Example 188, 5-(4-fluorobenzyl)-N-(4-(5-((4-hydroxy-4-methylpentyl)oxy)-2-methylphenyl)pyridin-2-yl)-4H-1,2,4-triazole-3-carboxamide]	≤ 100
CC(C)(O)CCCOc1ccc(Cl)c(-c2cc(NC(=O)c3nnc(CC4CCCCC4)[nH]3)ncc2Cl)c1 [Example 412, N-(5-chloro-4-(2-chloro-5-((4-hydroxy-4-methylpentyl)oxy)phenyl)pyridin-2-yl)-5-(cyclohexylmethyl)-4H-1,2,4-triazole-3-carboxamide]	100 to 1000
O=C(Nc1cc(-c2cc(OCCC3CCOCC3)ccc2Cl)ncn1)c1nnc(CC2CCCC2)[nH]1 [Example 472, N-(6-(2-chloro-5-(2-(tetrahydro-2H-pyran-4-yl)ethoxy)phenyl)pyrimidin-4-yl)-5-(cyclopentylmethyl)-4H-1,2,4-triazole-3-carboxamide]	≤ 100
CCCCOc1ccc(C)c(-c2ccnc(NC(=O)c3nnc(Cc4ccccc4)[nH]3)c2)c1 [Example 198, 5-benzyl-N-(4-(5-butoxy-2-methylphenyl)pyridin-2-yl)-4H-1,2,4-triazole-3-carboxamide]	100 to 1000
Cc1ccc(OCCCC(C)(C)O)cc1-c1ccnc(NC(=O)c2nnc(Cc3cc(F)cc(F)c3F)[nH]2)c1 [Example 215, 5-(2,3,5-trifluorobenzyl)-N-(4-(5-((4-hydroxy-4-methylpentyl)oxy)-2-methylphenyl)pyridin-2-yl)-4H-1,2,4-triazole-3-carboxamide]	≤ 100
O=C(Nc1cc(-c2cc(OCC3CCOCC3)ccc2C(F)(F)F)ncn1)c1nnc(CC2CCCCC2)[nH]1 [Example 457, 5-(cyclohexylmethyl)-N-(6-(5-((tetrahydro-2H-pyran-4-yl)methoxy)-2-(trifluoromethyl)phenyl)pyrimidin-4-yl)-4H-1,2,4-triazole-3-carboxamide]	≤ 100
CC(C)(O)COc1ccc(Cl)c(-c2ccnc(NC(=O)c3nnc(Cc4ccccc4)[nH]3)c2)c1 [Example 363, 5-benzyl-N-(4-(2-chloro-5-(2-hydroxyl-2-methylpropoxy)phenyl)pyridin-2-yl)-4H-1,2,4-triazole-3-carboxamide]	≤ 100
COCCCOc1ccc(C(F)(F)F)c(-c2ccnc(NC(=O)c3nnc(Cc4ccccc4)[nH]3)c2)c1 [Example 295, 5-benzyl-N-(4-(5-(3-methoxypropoxy)-2-(trifluoromethyl)phenyl)pyridin-2-yl)-4H-1,2,4-triazole-3-carboxamide]	≤ 100
Cc1ccc(OC(C)C)cc1-c1cncc(NC(=O)c2nnc(Cc3ccccc3)[nH]2)c1 [Example 113, 5-benzyl-N-(5-(5-isopropoxy-2-methylphenyl)pyridin-3-yl)-4H-1,2,4-triazole-3-carboxamide]	> 10000
O=C(Nc1cc(-c2cc(OCC3CCOCC3)ccc2Cl)ccn1)c1nnc(Cc2ccccc2)[nH]1 [Example 399, 5-benzyl-N-(4-(2-chloro-5-((tetrahydro-2H-pyran-4-yl)methoxy)phenyl)pyridin-2-yl)-4H-1,2,4-triazole-3-carboxamide]	≤ 100
Cc1ccc(OCC2CCOCC2)cc1-c1ccnc(NC(=O)c2nnc(CC3CCCC3)[nH]2)c1 [Example 79, 5-(cyclopentylmethyl)-N-(4-(2-methyl-5-((tetrahydro-2H-pyran-4-yl)methoxy)phenyl)pyridin-2-yl)-4H-1,2,4-triazole-3-carboxamide]	≤ 100
Cc1ccc(OCCC2CCCCCC2)cc1-c1ccnc(NC(=O)c2nnc(Cc3ccccc3)[nH]2)c1 [Example 225, 5-benzyl-N-(4-(5-(2-cycloheptylethoxy)-2-methylphenyl)pyridin-2-yl)-4H-1,2,4-triazole-3-carboxamide]	≤ 100
COc1ccc(-c2ccnc(NC(=O)c3nnc(Cc4ccccc4)[nH]3)c2)c(C)c1 [Example 10, 5-benzyl-N-(4-(4-methoxy-2-methylphenyl)pyridin-2-yl)-4H-1,2,4-triazole-3-carboxamide]	1000 to 10000
